Patent publication US4970225A, “Imidazolidine carboxylic acids and esters as blood platelet aggregation inhibitors” (Bristol-Myers Squibb Company, priority 1990, dated 1990)
Values after ≈ are worked out from the molar mass of the structure shown.

Test system: ADP-induced aggregation of human platelets
Type: cell-based
Conditions: Table 1; human platelet rich plasma; ADP 0.5 mcg/mL; read-out: Inhibition of Human Platelet Aggregation IC50 vs. ADP

| IC50 [µg/mL] | SMILES |
| --- | --- |
| 11.9 (≈ 29.1 µM) | O=C(O)CCCCCCCCN1C(=O)C(c2ccccc2)N(c2ccccc2)C1=O (centres unmarked) [Example 2, 2,5-dioxo-3,4-diphenyl-1-imidazolidinenonanoic acid] |
| 32 (≈ 75.7 µM) | COC(=O)CCCCCCCCN1C(=O)C(c2ccccc2)N(c2ccccc2)C1=O (centres unmarked) [Example 1, methyl 2,5-dioxo-3,4-diphenyl-1-imidazolidinenonanoate] |
